Experiment [1] has as its system Vero. As to the kind of experiment: Cytotoxicity against Chlorocebus aethiops (African green monkey) Vero cells after 72 hr by MTT assay. It counts as cell-based. Particulars: Chlorocebus sabaeus. (In general: Formazan colour is commonly taken as a measure of viable cells.)
In experiment [2] the test system is Mycobacterium tuberculosis. Briefly: Antimycobacterial activity against Mycobacterium tuberculosis H37Rv ATCC 27294 after 5 days by Alamar blue assay. Format: functional. Background: Alamar Blue is a resazurin reagent that responds to reducing activity.

Drawing on ChEMBL document CHEMBL3044715, “Synthesis, spectral studies and biological evaluation of a novel series of 2-substituted-5,6-diarylsubstituted imidazo(2,1-b)-1,3,4-thiadiazole derivatives as possible anti-tubercular agents” (Med Chem Res, 2012), this text covers IC50 and MIC for 20 compounds.

The structures appear in SMILES notation. Values after ≈ are worked out from the molar mass of the structure shown. Active and inactive are the calls of the source. The calls are words filed in the database; no cut-off is given here.

`CSc1ccc(-c2nc3sc(C(F)(F)F)nn3c2-c2ccccc2)cc1`: the 50% inhibitory concentration (IC50) in experiment [1] was found to be 140 µM. The minimum inhibitory concentration (MIC) in experiment [2] (H37Rv ATCC 27294, 120 h) came to 10 µg/mL (≈ 25.5 µM).

In experiment [1], `COc1ccc(-c2c(-c3ccc(SC)cc3)nc3sc(-c4ccc(F)cc4)nn23)cc1` returned an IC50 of 116 µM. This compound returned a minimal inhibitory concentration (MIC) in experiment [2] (H37Rv ATCC 27294, 120 h) of 10 µg/mL (≈ 22.3 µM).

In turn, `CSc1ccc(-c2nc3sc(S(N)(=O)=O)nn3c2-c2ccccc2)cc1` had a half-maximal inhibitory concentration (IC50) in experiment [1] of 192 µM. The compound also had an MIC in experiment [2] (H37Rv ATCC 27294, 120 h) of 2.5 µg/mL (≈ 6.21 µM).

In turn, `Cc1ccc(-c2nc3sc(S(N)(=O)=O)nn3c2-c2ccccc2)cc1` came in with an IC50 in experiment [1] of 168 µM. In experiment [2] (H37Rv ATCC 27294, 120 h), this compound came in with a minimal inhibitory concentration (MIC) of 10 µg/mL (≈ 27 µM).

With `COc1ccc(-c2c(-c3ccccc3)nc3sc(S(N)(=O)=O)nn23)cc1`, in experiment [1], the concentration for half-maximal inhibition (IC50) was 204 µM. In addition, the MIC in experiment [2] (H37Rv ATCC 27294, 120 h) worked out at 5 µg/mL (≈ 12.9 µM).

In turn, `COc1ccc(-c2c(-c3ccc(SC)cc3)nc3sc(C(F)(F)F)nn23)cc1` yielded an IC50 in experiment [1] of 123 µM. The MIC in experiment [2] (H37Rv ATCC 27294, 120 h) was determined as 5 µg/mL (≈ 11.9 µM).

Consider `Cc1ccc(-c2nc3sc(C(F)(F)F)nn3c2-c2ccccc2)cc1`, for which the MIC entry in experiment [2] is “inactive”.

Take `COc1ccc(-c2nc3sc(C(F)(F)F)nn3c2-c2ccc(OC)cc2)cc1`: in experiment [1], the IC50 was found to be 147 µM. The same compound showed a minimum inhibitory concentration (MIC) in experiment [2] (H37Rv ATCC 27294, 120 h) of 1.25 µg/mL (≈ 3.08 µM).

Consider `COc1ccc(-c2nn3c(-c4ccc(OC)cc4)c(-c4ccc(SC)cc4)nc3s2)cc1`, for which the half-inhibitory concentration (IC50) in experiment [1] was 120 µM. Also, the lowest concentration to inhibit growth in experiment [2] (H37Rv ATCC 27294, 120 h) (MIC) was 10 µg/mL (≈ 21.8 µM).

In turn, `NNC(=O)c1ccncc1` [ISONIAZID] yielded an IC50 in experiment [1] above 450 µM. The compound further displayed an MIC in experiment [2] (H37Rv ATCC 27294, 120 h) of 0.25 µg/mL (≈ 1.82 µM).

`COc1ccc(-c2nc3sc(S(N)(=O)=O)nn3c2-c2ccc(OC)cc2)cc1` gave a half-inhibitory concentration (IC50) in experiment [1] of 247 µM. The MIC in experiment [2] (H37Rv ATCC 27294, 120 h) was 1.25 µg/mL (≈ 3 µM).

The compound `COc1c(N2CCNC(C)C2)c(F)cc2c(=O)c(C(=O)O)cn(C3CC3)c12` (stereo not given) [GATIFLOXACIN] returned an IC50 in experiment [1] above 550 µM. For the same compound, in experiment [2] (H37Rv ATCC 27294, 120 h), the MIC amounted to 1 µg/mL (≈ 2.66 µM).

In experiment [1], `COc1ccc(-c2nn3c(-c4ccccc4)c(-c4ccc(SC)cc4)nc3s2)cc1` registered a half-inhibitory concentration (IC50) of 135 µM. In experiment [2] (H37Rv ATCC 27294, 120 h), the MIC was 10 µg/mL (≈ 23.3 µM).

With `COc1ccc(-c2c(-c3ccccc3)nc3sc(C(F)(F)F)nn23)cc1`, the MIC result in experiment [2] was “inactive”.

Regarding `COc1ccc(-c2nn3c(-c4ccc(OC)cc4)c(-c4ccc(OC)cc4)nc3s2)cc1`, in experiment [1], the IC50 is 162 µM. Also, inhibition of growth in experiment [2] (H37Rv ATCC 27294, 120 h) (MIC) required 5 µg/mL (≈ 11.3 µM).

`COc1ccc(-c2c(-c3ccc(SC)cc3)nc3sc(S(N)(=O)=O)nn23)cc1` registered an IC50 in experiment [1] of 213 µM. The compound further registered a minimum inhibitory concentration (MIC) in experiment [2] (H37Rv ATCC 27294, 120 h) of 2.5 µg/mL (≈ 5.78 µM).

Regarding `COc1ccc(-c2nn3c(-c4ccccc4)c(-c4ccc(C)cc4)nc3s2)cc1`, the MIC entry in experiment [2] was “inactive”.

`COc1ccc(-c2nc3sc(-c4ccc(F)cc4)nn3c2-c2ccc(OC)cc2)cc1`: the half-maximal inhibitory concentration (IC50) in experiment [1] was 163 µM. Further, in experiment [2] (H37Rv ATCC 27294, 120 h), the minimum inhibitory concentration (MIC) worked out at 5 µg/mL (≈ 11.6 µM).

On to `COc1ccc(-c2c(-c3ccccc3)nc3sc(-c4ccc(F)cc4)nn23)cc1`, for which the MIC result in experiment [2] was “inactive”.

For `CSc1ccc(-c2nc3sc(-c4ccc(F)cc4)nn3c2-c2ccccc2)cc1`, in experiment [2], the MIC entry was “inactive”.

Usually IC50 stands for the midpoint of a concentration-inhibition curve. A low value points to greater potency. The term MIC denotes the lowest concentration that inhibits growth of the organism.
